Measurements from paper PMC7577153, “Identification of Small-Molecule Inhibitors Targeting Porphyromonas gingivalis Interspecies Adherence and Determination of Their In Vitro and In Vivo Efficacies” (Antimicrobial Agents and Chemotherapy, 2020).
Read-outs that look alike come from different tables or passages of the source. Marks after values point to notes of the source that are not given here.

Tests used:
J774A.1 cells [1] = test: LDH release (CytoTox 96); assay type: cell-based, mouse; conditions: 18 h
Method: (§1) The CytoTox 96 nonradioactive cytotoxicity assay (Promega Inc. Madison, WI) was used to determine extracellular lactate dehydrogenase activity (LDH) in TIGK, J774A.1, and HL60 cell cultures treated with the test compounds. […] After an 18-h incubation, the cell supernatant was collected by centrifugation at 250 × g for 4 min, and 50 μl of cell free supernatant was transferred into wells of a fresh 96-well microtiter plate. Subsequently, 50 μl of the LDH substrate was added in each well and incubated at room temperature for 30 min. Reactions were stopped by adding 50 μl of the stop solution according to the manufacturer’s protocol, and the endpoint was measured by determining optical density at 490 nm. Cells treated with culture medium containing 0.1% DMSO or with medium alone served as negative controls, and cells incubated with 15-μl lysis buffer (supplied by manufacturer) for 1 h served as a positive control for lysis. All samples were tested in triplicate.

[2] = tested on: P. gingivalis adherence to S. gordonii; test: organism not typed; assay type: cell-based, Porphyromonas gingivalis; conditions: for dose-dependent inhibition of P. gingivalis adherence and biofilm formation: 5, 10, 15, 25, and 40 μM; for inhibition at 40 µM: read-out: inhibition of P. gingivalis adherence to S. gordonii and biofilm formation
Method: Using the two species biofilm model described by Patil et al. ([19]), the in vitro effectiveness of the compounds was determined by their ability to inhibit P. gingivalis adherence to S. gordonii and subsequent biofilm formation at an initial concentration of 40 μM.
To quantify P. gingivalis adherence to S. gordonii, a two-species biofilm model was employed as previously described ([19], [33]). Briefly, 20 ml of an overnight culture of S. gordonii was centrifuged at 5600 × g (MIKRO 220R, Hettich Zentrifugen) for 10 min, and the harvested cells were washed with phosphate-buffered saline (PBS; 10 mM Na2HPO4, […], […], and 2.7 mM KCl [pH 7.2]). To label S. gordonii, the cell pellet was suspended in 1 ml of PBS containing 20 μl of 5 mg/ml of hexidium iodide (Molecular Probes; Eugene, OR) and incubated in the dark for 15 min at room temperature with gentle shaking. The labeled cells were than centrifuged at 5600 × g for 5 min and washed twice with PBS. Finally, the cells were suspended in PBS to a final optical density at 600 nm (OD600) of 0.6, and 1 ml of labeled S. gordonii cells was added to each well of a 12-well microtiter plate (Greiner Bio-one, Monroe, NC) containing a circular coverslip (Fisher Scientific, Hampton, NH). Plates were incubated at 37°C for 24 h under anaerobic conditions on a rotary shaker. On the following day, cells from a 10-ml overnight P. gingivalis culture were harvested as described above and fluorescent labeling was performed by incubating the cells in 1 ml PBS containing 20 μl of 5(6)-carboxyfluorescein N-hydroxysuccinimide ester (4 mg/ml) (Thermo Fisher, Waltham, MA) for 30 min in the dark at room temperature with gentle shaking. After being washed two times with PBS, the labeled cells were suspended in PBS at a final OD600 of 0.4. While this reaction was carried out, unattached S. gordonii cells were removed from each well by aspiration, and subsequently, 1 ml of labeled P. gingivalis cells alone or with the desired concentration of the compounds to be tested was added to each well of the microtiter plates. Plates were incubated at 37°C for 24 h under anaerobic conditions. The compounds that were tested were initially dissolved in dimethyl sulfoxide (DMSO) to generate a 1,000× stock solution and subsequently diluted in the cell suspensions to obtain the working concentration. For the control wells, DMSO without a test compound was added to a final concentration of 0.1% in order to maintain a constant DMSO concentration in all wells.
Unbound P. gingivalis cells were removed from each well by aspiration, and the coverslips were washed twice with 5 ml of PBS. Biofilms were then fixed with 4% paraformaldehyde for 5 min in the dark and washed two times with 5 ml of PBS. The coverslips were mounted on a glass slide (Sigma-Aldrich) containing a drop of Prolong gold anti-fade agent (Molecular Probes, Eugene, OR) and sealed with transparent nail polish.
Visualization of the biofilms was carried out by laser scanning confocal microscopy using an SP8 confocal microscope (Leica Microsystems, Inc., Buffalo Grove, IL), with the laser source settings at 488 nm and 552 nm to visualize P. gingivalis and S. gordonii, respectively. Images were collected using a Z plane scan for a depth of 25 μm using a Z step thickness of 0.7 μm. Background noise was reduced using the software that was supplied with the Leica SP8 microscope. Three-dimensional reconstruction of the Z plane scans and quantification of the red and green channel fluorescence were performed using Volocity 6.3 image analysis software (PerkinElmer, Waltham, MA).

J774A.1 cells [3] = conditions: 18 h
Method: (§2) The mouse macrophage cell line J774A.1 was grown in Dulbecco’s modified Eagle medium (DMEM) (Thermo Fisher Scientific, Waltham, MA) supplemented with 4.5 g/ml glucose, 10% fetal bovine serum (FBS), and 100 U/ml penicillin-streptomycin (Sigma-Aldrich, St. Louis, MO). HL60 (ATCC CCL240) cells were obtained from the American Type Culture Collection and cultured in Iscove’s modified Dulbecco’s medium (Sigma-Aldrich) supplemented with 20% fetal bovine serum (FBS) (Sigma-Aldrich).
(§3) The apoptotic activity of the compounds was determined using the phycoerythrin (PE) annexin V/dead cell apoptosis kit with Sytox green for flow cytometry (Invitrogen, Carlsbad, CA). Cells were grown in 12-well flat-bottom microtiter plates at an initial density 2 × 10^5 cells in 1.5-ml medium per well for 24 h. Following the incubation period, spent medium was replaced with fresh medium containing the desired concentration of the test compound and incubated for another 18 h. After trypsinization, cells were harvested by centrifuging at 250 × g for 4 min, and the cell pellet was suspended in 100 μl of binding buffer supplemented with 1 μl Sytox and 5 μl annexin V, followed by incubation at 37°C for 15 min. Samples were then diluted by adding 400-μl binding buffer, and flow cytometry was performed using a FACScalibur flow cytometer (Becton, Dickinson, Franklin Lakes, NJ), measuring the fluorescence emissions at 530 nm and 575 nm.

TIGK cells [4] = conditions: 18 h
Method: as §2, §3

HL60 cells [5] = test: LDH release (CytoTox 96); assay type: cell-based, human; conditions: 18 h
Method: as §1

TIGK cells [6] = test: LDH release (CytoTox 96); assay type: cell-based, human; conditions: 18 h
Method: as §1

TIGK cells [7] = test: total cellular ATP (CellTiterGlo); assay type: cell-based, human; conditions: 18 h, versus negative controls
Method: To determine the metabolic activity of cells, the total cellular ATP level was measured in cell culture samples using the CellTiterGlo reagent (Promega Inc. Madison, WI). Cells were grown as described above in the presence of the desired concentration of compounds. The spent medium was decanted, and cells were washed three times with PBS and subsequently incubated with 100 μl of the CellTiterGlo substrate. To facilitate the reaction, plates were incubated at room temperature for 2 min with shaking and for an additional 10 min without shaking. Total light production was measured using a Victor 3 multilabel plate reader (PerkinElmer).

HL60 cells [8] = conditions: 18 h
Method: as §2, §3

Compound | dose-dependent inhibition of P. gingivalis adherence and biofilm formation [2] | inhibition at 40 µM [2] | Early apoptosis (%) (J774A.1 cells [3]; 5 μM) | Late apoptosis/necrosis (%) (J774A.1 cells [3]; 5 μM) | Live cells (%) (J774A.1 cells [3]; 5 μM) | Early apoptosis (%) (J774A.1 cells [3]; 20 μM) | Late apoptosis/necrosis (%) (J774A.1 cells [3]; 20 μM) | Live cells (%) (J774A.1 cells [3]; 20 μM) | Late apoptosis/necrosis (%) (J774A.1 cells [3]; 40 μM) | Live cells (%) (J774A.1 cells [3]; 40 μM) | Early apoptosis (%) (TIGK cells [4]; 5 μM) | Late apoptosis/necrosis (%) (TIGK cells [4]; 5 μM) | Live cells (%) (TIGK cells [4]; 5 μM) | Early apoptosis (%) (TIGK cells [4]; 20 μM) | Late apoptosis/necrosis (%) (TIGK cells [4]; 20 μM) | Live cells (%) (TIGK cells [4]; 20 μM) | Early apoptosis (%) (TIGK cells [4]; 40 μM) | Late apoptosis/necrosis (%) (TIGK cells [4]; 40 μM) | Live cells (%) (TIGK cells [4]; 40 μM) | cellular ATP levels (TIGK cells [7]) | further results
Cl.N=c1n(CCN2CCCCC2)c2ccccc2n1CC(O)COc1ccc(Cl)cc1 (stereo not drawn) [N7, 1-(4-chlorophenoxy)-3-{2-imino-3-[2-(piperidin-1-yl)ethyl]-2,3-dihydro-1H-1,3-benzodiazol-1-yl}propan-2-ol hydrochloride] | inhibited P. gingivalis adherence and biofilm formation in a dose-dependent manner | 40% | 2.5% | 5.5% | 83.9% | 16.9% | 46.6% | 33.4% | 38.0% | 36.2% | 2.4% | 8.3% | 86.8% | 1.0% | 14.9* % | 74.5% | 5.9% | 40.7* % | 48.3% | significantly reduced cellular ATP levels | LDH release (J774A.1 cells [1]; J774A.1 cells, 20 μM and 40 μM): significant increases; Early apoptosis (%) (J774A.1 cells [3]; 40 μM): 24.9%; LDH release (HL60 cells [5]; HL-60 cells, 20 μM and 40 μM): significant increases; LDH release (TIGK cells [6]; 40 μM): significant increase in LDH release; Early apoptosis (%) (HL60 cells [8]; HL60, 5 μM): 3.6%; Late apoptosis/necrosis (%) (HL60 cells [8]; HL60, 5 μM): 7.8%; Live cells (%) (HL60 cells [8]; HL60, 5 μM): 87.4%; Early apoptosis (%) (HL60 cells [8]; HL60, 20 μM): 20.9%; Late apoptosis/necrosis (%) (HL60 cells [8]; HL60, 20 μM): 43.9%; Live cells (%) (HL60 cells [8]; HL60, 20 μM): 27.3%; Early apoptosis (%) (HL60 cells [8]; HL60, 40 μM): 7.7%; Late apoptosis/necrosis (%) (HL60 cells [8]; HL60, 40 μM): 70.8%; Live cells (%) (HL60 cells [8]; HL60, 40 μM): 18.9%
O=C(Nc1ccccc1O)c1cccc(N2C(=O)c3ccc(C(=O)Nc4ccccc4O)cc3C2=O)c1 [N17, N-(2-hydroxyphenyl)-2-{3-[(2-hydroxyphenyl)carbamoyl]phenyl}-1,3-dioxo-2,3-dihydro-1H-isoindole-5-carboxamide] | inhibited P. gingivalis adherence and biofilm formation in a dose-dependent manner | 60% | 1.0% | 6.1% | 87.8% | 1.0% | 6.9% | 85.3% | 6.6% | 87.3% | 2.9% | 4.2% | 90.7% | 2.4% | 3.6% | 92.4% | 1.5% | 5.1% | 91.6% | did not significantly differ from the negative controls | LDH release (J774A.1 cells [1]; J774A.1 cells, 5, 20 and 40 μM): no significant effect; IC50 ([2]; Porphyromonas gingivalis, read-out: 50% inhibitory concentration (IC50) of P. gingivalis adherence in vitro): ~18 µM; Early apoptosis (%) (J774A.1 cells [3]; 40 μM): 1.2%; LDH release (HL60 cells [5]; HL-60 cells, 5, 20 and 40 μM): no significant effect; LDH release (TIGK cells [6]; versus negative controls): did not significantly differ from the negative controls; Early apoptosis (%) (HL60 cells [8]; HL60, 5 μM): 2.7%; Late apoptosis/necrosis (%) (HL60 cells [8]; HL60, 5 μM): 4.7%; Live cells (%) (HL60 cells [8]; HL60, 5 μM): 91.3%; Early apoptosis (%) (HL60 cells [8]; HL60, 20 μM): 2.2%; Late apoptosis/necrosis (%) (HL60 cells [8]; HL60, 20 μM): 6.0%; Live cells (%) (HL60 cells [8]; HL60, 20 μM): 90.3%; Early apoptosis (%) (HL60 cells [8]; HL60, 40 μM): 2.3%; Late apoptosis/necrosis (%) (HL60 cells [8]; HL60, 40 μM): 6.3%; Live cells (%) (HL60 cells [8]; HL60, 40 μM): 91.6%
Cc1cc([C@H]2CCCN(CC(=O)NC3(C#N)CCCC3)C2)n[nH]1 [V8, N-(1-cyanocyclopentyl)-2-[3-(5-methyl-1H-pyrazol-3-yl)piperidin-1-yl] acetamide] | inhibited P. gingivalis adherence and biofilm formation in a dose-dependent manner | ≥ 40% | 1.1% | 8.3% | 85.1% | 0.9% | 8.0% | 83.4% | 9.1% | 84.3% | 3.1% | 4.2% | 91.6% | 2.1% | 3.5% | 92.8% | 2.4% | 3.4% | 92.8% | did not significantly differ from the negative controls | LDH release (J774A.1 cells [1]; J774A.1 cells, 5, 20 and 40 μM): no significant effect; LDH release (HL60 cells [5]; HL-60 cells, 5, 20 and 40 μM): no significant effect; LDH release (TIGK cells [6]; versus negative controls): did not significantly differ from the negative controls; Early apoptosis (%) (HL60 cells [8]; HL60, 5 μM): 2.9%; Late apoptosis/necrosis (%) (HL60 cells [8]; HL60, 5 μM): 5.6%; Live cells (%) (HL60 cells [8]; HL60, 5 μM): 91.8%; Early apoptosis (%) (HL60 cells [8]; HL60, 20 μM): 3.7%; Late apoptosis/necrosis (%) (HL60 cells [8]; HL60, 20 μM): 5.0%; Live cells (%) (HL60 cells [8]; HL60, 20 μM): 91.3%; Early apoptosis (%) (HL60 cells [8]; HL60, 40 μM): 2.4%; Late apoptosis/necrosis (%) (HL60 cells [8]; HL60, 40 μM): 6.7%; Live cells (%) (HL60 cells [8]; HL60, 40 μM): 88.4%
